Results reported in patent US20240391895A1, “PYRIDAZINE-CONTAINING COMPOUND AND MEDICINAL USE THEREOF” (Tuojie Biotech (Shanghai) Co., Ltd., priority 2020, published 2024).

Each molecule was assayed against T1, NLRP3 inflammasome (Homo sapiens, UniProt Q96P20) (assay: Inhibitory activity against NLRP3 inflammasome in human monocytes (IL-1b ELISA)). Details: human monocytes from PBMCs; compound 0.5 h, LPS 100 ng/mL 3.5 h, ATP 5 mM 45 min; IL-1b in supernatant by ELISA; (n = 2) cells are means of n tests; read-out: IL-1β inhibition (EC50)/nM.
T1 construct: Monocytes were then isolated from the PBMCs using a human pan-monocyte isolation kit; endogenous in cells; host or cells: primary human monocytes isolated from PBMCs of human blood
T1 sequence (Q96P20 whole entry): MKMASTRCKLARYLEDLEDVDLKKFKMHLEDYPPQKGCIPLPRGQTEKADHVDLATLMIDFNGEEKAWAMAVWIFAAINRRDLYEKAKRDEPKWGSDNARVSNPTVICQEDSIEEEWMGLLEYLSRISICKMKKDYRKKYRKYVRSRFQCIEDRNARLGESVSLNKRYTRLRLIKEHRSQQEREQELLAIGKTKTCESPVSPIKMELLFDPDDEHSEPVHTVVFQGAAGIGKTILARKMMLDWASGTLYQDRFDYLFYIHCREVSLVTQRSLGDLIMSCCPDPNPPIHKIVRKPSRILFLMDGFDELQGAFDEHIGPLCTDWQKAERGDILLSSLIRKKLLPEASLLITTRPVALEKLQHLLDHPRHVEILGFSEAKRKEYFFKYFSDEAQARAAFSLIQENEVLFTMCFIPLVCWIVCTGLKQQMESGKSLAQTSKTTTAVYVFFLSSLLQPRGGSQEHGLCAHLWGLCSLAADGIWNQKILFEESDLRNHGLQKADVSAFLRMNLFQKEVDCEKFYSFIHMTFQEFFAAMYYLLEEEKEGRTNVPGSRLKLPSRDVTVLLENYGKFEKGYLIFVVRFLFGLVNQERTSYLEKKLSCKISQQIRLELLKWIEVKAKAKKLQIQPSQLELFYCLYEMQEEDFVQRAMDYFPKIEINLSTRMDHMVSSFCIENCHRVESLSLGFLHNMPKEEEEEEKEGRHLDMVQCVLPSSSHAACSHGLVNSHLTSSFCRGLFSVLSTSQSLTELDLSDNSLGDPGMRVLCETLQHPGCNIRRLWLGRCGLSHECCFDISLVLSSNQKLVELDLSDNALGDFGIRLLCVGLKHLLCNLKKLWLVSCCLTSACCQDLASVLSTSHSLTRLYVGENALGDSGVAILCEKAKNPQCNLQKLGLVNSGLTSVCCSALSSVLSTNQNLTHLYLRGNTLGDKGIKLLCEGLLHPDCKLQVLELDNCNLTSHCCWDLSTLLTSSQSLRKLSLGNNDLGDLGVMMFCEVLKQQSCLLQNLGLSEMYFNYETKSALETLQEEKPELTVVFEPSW
Assay type: cell-based
Description: Assays for Inhibitory Activity Against NLRP3 Inflammasome in Human Monocytes
Day 1: PBMCs were separated from human blood by density gradient centrifugation and washed twice with PBS containing 2% FBS (centrifuged at 300 g for 8 min). Monocytes were then isolated from the PBMCs using a human pan-monocyte isolation kit and an LS column. The cells were stained with CD14-FITC at 4° C. for 30 min, and FACS was run on BD FACS Verse to analyze the purity of the pan-monocytes. The cells were counted, and the cell density was adjusted to 2.5×10^5 cells/mL. The cells were seeded into a 96-well plate at 2.5×10^4 monocytes/[…] suspension/well. The plate was incubated overnight at 37° C. in 5% CO2.
Day 2: Test compounds were pre-titrated so that all titration points, including the DMSO control well, contained 0.1% DMSO. […] At the end of the 3.5 hours' incubation, the cells were stimulated (by adding […] of 40 mM ATP (the final concentration would be 5 mM) to treat the cells for 45 min). […] of supernatant was transferred to a new plate and stored at […]
Day 3: The supernatant solution was 20-fold diluted for human monocyte IL-1b ELISA according to the manufacturer's instructions.
Days 3-4: ELISA experiment • 1) Day 3: A capture antibody (diluted with coating buffer) was added to the plate at […]. The plate was sealed and incubated overnight at 4° C. • 2) Day 4: The liquids in the wells were pipetted off, and the plate was washed 3 times with wash buffer, 300 μL/≥each time. After the last wash, the plate was inverted and blotted dry with absorbent paper to remove any residual buffer.
3) A test dilution was added to the plate at ≥200 μL/well. The plate was incubated at room temperature for 1 h. • 4) The plate was blotted dry/washed as in step 2. • 5) Standard and sample dilutions were prepared with the test dilution. • 6) Each standard, sample and control was added to a corresponding well at […]. The plate was sealed and incubated at room temperature for 2 h. • 7) The plate was blotted dry/washed as in step 2, except that it was washed 5 times. • 8) The assay antibody was diluted with the test dilution and added to wells at […]/well. • 9) The plate was sealed and incubated at room temperature for 1 h. • 10) The plate was blotted dry/washed as in step 2, except that it was washed 5 times. • 11) The enzyme reagent was diluted with the test dilution and added to wells at […]/well. The plate was sealed and incubated at room temperature for 30 min. • 12) The plate was blotted dry/washed, and the step of soaking for 30 s-1 min was used. The plate was washed 7 times in total. • 13) A substrate solution was added at […]/well. The plate (without plate sealant) was incubated at room temperature in the dark for 30 min. • 14) A stop solution was added at […]. • 15) The absorbance at 450 nm was read using the instrument Envision within 30 min of stopping the reaction. If a wavelength correction was available, the absorbance at 570 nm would be subtracted from the absorbance at 450 nm.

Compared with `Cc1cc(N[C@@H]2CCCN(C)C2)nnc1-c1ccc(C(F)(F)F)cc1C(F)F` [Compound 8, (R)-6-(2-(Difluoromethyl)-4-(trifluoromethyl)phenyl)-5-methyl-N-(1-methylpiperidin-3-yl)pyridazin-3-amine], `Cc1cc(N[C@@H]2CCCN(C)C2)nnc1-c1ccc(SC(F)(F)F)cc1O` (racemic) [Compound 11, rac-(R2-(4-Methyl-6-((1-methylpiperidin-3-yl)amino)pyridazin-3-yl)-5-( (trifluoromethyl)thio)phenol] is 1.7-fold lower in EC50: 4.31 nM for the first, 2.47 nM for the second.

`C[C@]1(O)C[C@@H](Nc2nnc(-c3ccc4c(c3O)CCC4)c3ccccc23)C1` [Compound 31] and `C[C@]1(O)C[C@@H](Nc2nnc(-c3ccc4c(c3O)CCC4)c3cnccc23)C1` [Compound 40] are within 1.5-fold of each other in EC50: 1.08 nM for the first, 1.1 nM for the second.

Compared with `Cc1cc(N[C@@H]2CCCN(C)C2)nnc1-c1ccc2c(c1O)CCCC2` [Compound 27], `Cc1cc(N[C@@H]2CCCN(C)C2)nnc1-c1ccc2c(c1O)CCC2` [Compound 4, (R)-5-(4-Methyl-6-((1-methylpiperidin-3-yl)amino)pyridazin-3-yl)-2,3-dihydro-1H-inden-4-ol] is 2.5-fold lower in EC50: 4.75 nM for the first, 1.91 nM for the second. The second is the more potent here.

First: Cc1cc(N[C@@H]2CCCN(C)C2)nnc1-c1ccncc1O [Compound 13, (R)-4-(4-Methyl-6-((1-methylpiperidin-3-yl)amino)pyridazin-3-yl)pyridin-3-ol]
Second: Cc1cc(N[C@@H]2CCCN(C)C2)nnc1-c1cc2c(cc1O)CCC2 [Compound 6, (R)-6-(4-Methyl-6-((1-methylpiperidin-3-yl)amino)pyridazin-3-yl)-2,3-dihydro-1H-inden-5-ol]
The EC50 of the first is 6.9-fold higher: 129 nM for the first, 18.7 nM for the second. The second is the more potent here.

`Cc1cc(N[C@@H]2CCCN(C)C2)nnc1-c1cc2ccccc2cc1O` [Compound 5, (R)-3-(4-Methyl-6-((1-methylpiperidin-3-yl)amino)pyridazin-3-yl)naphthalen-2-ol] and `CN1CCC[C@@H](Nc2ccc(-c3c(O)ccc4ccccc34)nn2)C1` [Compound 10, (R)-1-(6-((1-Methylpiperidin-3-yl)amino)pyridazin-3-yl)naphthalen-2-ol] are within 1.5-fold of each other in EC50: 41.8 nM for the first, 48.2 nM for the second.

Going from `CN1CCC[C@@H](Nc2nnc(-c3c(O)cccc3F)c3c2CCC3)C1` (racemic) [Compound 20, rac-3-Fluoro-2-(4-((R)-1-methylpiperidin-3-yl)amino)-6,7-dihydro-5H-cyclopenta[d]pyridazin-1-yl)phenol] to `Cc1cc(N[C@@H]2CCCN(C)C2)nnc1-c1c(O)ccc2c1CCC2` [Compound 7], the EC50 rises from 1.23 nM to 22.6 nM (18-fold).

First: C[C@]1(O)C[C@@H](Nc2nnc(-c3c(O)cc(C(F)(F)F)cc3F)c3ccccc23)C1 [Compound 44]
Second: Cc1cc(C(F)(F)F)cc(O)c1-c1nnc(N[C@H]2C[C@@](C)(O)C2)c2ccccc12 [Compound 46]
The EC50 of the first is 2.4-fold higher: 24 nM for the first, 10.1 nM for the second.

Compared with `Cc1cc(N[C@H]2C[C@@](C)(O)C2)nnc1-c1ccc2c(c1O)CCC2` [Compound 14], `Cc1c(N[C@H]2C[C@@](C)(O)C2)nnc(-c2ccc3c(c2O)CCC3)c1C` [Compound 21] is 1.9-fold higher in EC50: 2.38 nM for the first, 4.62 nM for the second.

Going from `Cc1c(N[C@H]2C[C@@](C)(O)C2)nnc(-c2ccc(C3CC3)cc2O)c1C` [Compound 29] to `Cc1cc(N[C@H]2C[C@@](C)(O)C2)nnc1-c1ccc(C2CC2)cc1O` [Compound 28], the EC50 falls from 37.2 nM to 17.4 nM (2.1-fold). The second is the more potent here.

First: C[C@]1(O)C[C@@H](Nc2nnc(-c3ccc(C(F)(F)F)cc3O)c3cccnc23)C1 [Compound 23]
Second: C[C@]1(O)C[C@@H](Nc2nnc(-c3ccc(C(F)(F)F)cc3O)c3ncccc23)C1 [Compound 22]
The EC50 of the first is 14-fold lower: 2.51 nM for the first, 35.5 nM for the second.

`C[C@]1(O)C[C@@H](Nc2nnc(-c3c(O)cc(C(F)(F)F)cc3F)c3ccncc23)C1` [Compound 33] and `C[C@]1(O)C[C@@H](Nc2nnc(-c3c(O)cc(C(F)(F)F)cc3F)c3cnccc23)C1` [Compound 34] are within 1.5-fold of each other in EC50: 22 nM for the first, 27 nM for the second.

First: Cc1cc(N[C@H]2C[C@@](C)(O)C2)nnc1-c1cc(F)c2c(c1O)CCC2 [Compound 37]
Second: C[C@]1(O)C[C@@H](Nc2nnc(-c3ccc4c(c3O)CCC4)c3cccnc23)C1 [Compound 38]
The EC50 of the first is 20-fold higher: 60 nM for the first, 3 nM for the second.

First: C[C@]1(O)C[C@@H](Nc2nnc(-c3ccc(C(F)(F)F)cc3O)c3cnccc23)C1 [Compound 25]
Second: C[C@]1(O)C[C@@H](Nc2nnc(-c3ccc(C(F)(F)F)cc3O)c3ccncc23)C1 [Compound 24]
The EC50 of the first is 19-fold higher: 12.8 nM for the first, 0.68 nM for the second.

Going from `C[C@]1(O)C[C@@H](Nc2nnc(-c3ccc(C4CC4)cc3O)c3ccncc23)C1` [Compound 41] to `C[C@]1(O)C[C@@H](Nc2nnc(-c3ccc(C4CC4)cc3O)c3ccccc23)C1` [Compound 30], the EC50 falls from 27 nM to 13.4 nM (2-fold). The second is the more potent here.

Going from `Cc1cc(N[C@@H]2CCCN(CCO)C2)nnc1-c1ccc(C2CC2)cc1O` (racemic) [Compound 36, rac-(R)-5-Cyclopropyl-2-(6-((1-(2-hydroxyethyl)piperidin-3-yl)amino)-4-methylpyridazin-3-yl)phenol] to `Cc1cc(N[C@@H]2CCCN(C)C2)nnc1-c1cc2ccccc2cc1O` [Compound 9, (R)-3-(4-Methyl-6-((1-methylpiperidin-3-yl)amino)pyridazin-3-yl)naphthalen-2-ol], the EC50 falls from 127 nM to 41.8 nM (3-fold).

Going from `CN1CCC[C@@H](Nc2nnc(-c3c(O)cc(C(F)(F)F)cc3F)c3c2COC3)C1` [Compound 35] to `Cc1cc(C(F)(F)F)cc(O)c1-c1nnc(N[C@@H]2CCCN(C)C2)c2c1COC2` [Compound 47], the EC50 rises from 1.4 nM to 32.2 nM (23-fold). The first is the more potent here.

`Cc1cc(C(F)(F)F)cc(O)c1-c1nnc(N[C@H]2C[C@@](C)(O)C2)c2cnccc12` [Compound 45] and `C[C@]1(O)C[C@@H](Nc2nnc(-c3ccc(C(F)(F)F)cc3O)c3ccccc23)C1` [Compound 15] are within 1.5-fold of each other in EC50: 4.9 nM for the first, 4.25 nM for the second.

Compared with `OCCN1CCC[C@@H](Nc2nnc(-c3ccc(C(F)(F)F)cc3O)c3c2COC3)C1` (racemic) [Compound 32, rac-(R)-2-(4-(1-(2-Hydroxyethyl)piperidin-3-yl)amino)-5,7-dihydrofuro[3,4-d]pyridazin-1-yl)-5-(trifluoromethyl)phenol], `OCCN1CCC[C@@H](Nc2nnc(-c3ccc(C(F)(F)F)cc3O)c3c2CCCC3)C1` (racemic) [Compound 19, rac-(R)-2-(4-(1-(2-Hydroxyethyl)piperidin-3-yl)amino)-5,6,7,8-tetrahydrophthalazin-1-yl)-5-(trifluoromethyl)phenol] is 7-fold higher in EC50: 0.71 nM for the first, 4.99 nM for the second.

Going from `C[C@]1(O)C[C@@H](Nc2nnc(-c3ccc4c(c3O)CCC4)c3ccncc23)C1` [Compound 39] to `C[C@]1(O)C[C@@H](Nc2nnc(-c3ccc(C(F)(F)F)cc3O)c3c2COCC3)C1` [Compound 42], the EC50 rises from 1 nM to 20 nM (20-fold). The first is the more potent here.

`Cc1cc(N[C@@H]2CCCN(C)C2)nnc1-c1c(O)ccc2c1CCC2` [Compound 17] and `C[C@]1(O)C[C@@H](Nc2nnc(-c3ccc(C(F)(F)F)cc3O)c3c2CCOC3)C1` [Compound 43] are within 1.5-fold of each other in EC50: 14.4 nM for the first, 20 nM for the second.
